Experimental data as given in patent publication US8722665B2, “Cinnamido-pyrrolo[2,1-C][1,4]benzodiazepines as potential anticancer agents and process for the preparation thereof” (Council of Scientific & Industrial Research, priority 2008, dated 2014).

Tested on: duplex-form calf thymus DNA (CT-DNA)
Test: Thermal denaturation studies with calf thymus DNA
Format: binding
Conditions: [PBD]:[DNA] molar ratio 1:5, CT-DNA 100 μM, ligand 20 μM, pH 7.00; for (ΔTm ° C.) after incubation at 37° C. for 0 h: 0 h incubation at 37° C.; for (ΔTm ° C.) after incubation at 37° C. for 18 h: 18 h incubation at 37° C.
Experimental: Compounds have been subjected to thermal denaturation studies with duplex-form calf thymus DNA (CT-DNA) using an modification of a reported procedure (Newman, M. S. Carcinog-compr. Surv. 1976, 1, 203; (b) Hecht, S. S.; Loy, M.; Hoffman, Carcinog-compr. Surv. 1976, 1, 325). Working solutions in aqueous buffer (10 mM NaH2PO4/Na2HPO4, 1 mM Na2EDTA, pH 7.00+0.01) containing CT-DNA (100 μm in phosphate) and the PBD (20 μm) have been prepared by addition of concentrated PBD solutions in DMSO to obtain a fixed [PBD]/[DNA] molar ratio of 1:5. The DNA-PBD solutions have been incubated at 37° C. for 0 and 18 h prior to analysis. Samples have been monitored at 260 nm using a Beckman DU-800 spectrophotometer fitted with high performance temperature controller, and heated at 1° C. min^−1 in the 40-110° C. range. DNA helix→coil transition temperatures (Tm) have been obtained from the maxima in the d(A260)/dT derivative plots. Drug-induced alterations in DNA melting behavior are given by: ΔTm=Tm(DNA+PBD)−Tm(DNA alone), where the Tm value for the PBD-free CT-DNA is 69.1±0.01.
The DNA binding activity for these Cinnamido-pyrrolo[2,1-c][1,4]benzodiazepines have been examined by thermal denaturation studies using calf thymus (CT) DNA. […] The data for the compounds 8b&d, 11b&d, 14b&d and 17b&d is included in Table 1 for comparison.

| Molecule | (ΔTm ° C.) after incubation at 37° C. for 0 h [°C] | (ΔTm ° C.) after incubation at 37° C. for 18 h [°C] |
| --- | --- | --- |
| 1,1′-{[(E-3-bis pentyloxy-3-methoxy phenyl)-1-4-piperzino]-2-propene-1-one]dioxy}bis(11aS)-7-methoxy-1,2,3,11a-tetrahydro-5H-pyrrolo[2,1-c][1,4]benzo diazepine-5-one [17d] | 8.1 | 9.2 |
| 1,1′-{[(E-3-bis propoxy-3-methoxy phenyl)-1-4-piperzino]-2-propene-1-one}dioxy}bis(11aS)-7-methoxy-1,2,3,11a-tetrahydro-5H-pyrrolo[2,1-c][1,4]benzo diazepine-5-one [17b] | 4.0 | 5.1 |
| COc1cc(/C=C/C(=O)N2CCN(C(=O)c3cc(OC)c(OC)c(OC)c3)CC2)ccc1OCCCCCOc1cc2c(cc1OC)C(=O)N1CCC[C@H]1C=N2 [8d, 7-methoxy-8-{5-(2-methoxy-4-(E)-3-oxo-3-[4-(3,4,5-trimethoxybenzoyl)piperazino]-1-propenylphenoxy)pentyloxy}-(11aS)-2,3,5,11^a-tetrahydro-5H-pyrrolo[2,1-c][1,4]benzo-diazepine-5-one] | 1.5 | 2.5 |
| COc1cc(/C=C/C(=O)N2CCN(C)CC2)ccc1OCCCOc1cc2c(cc1OC)C(=O)N1CCC[C@H]1C=N2 [11b, 7-methoxy-8-(3-2-methoxy-4-[(E)-3-(4-methylpiperazino)-3-oxo-1-propenyl-phenoxy]propoxy)-(11aS)-2,3,5,11^a-tetrahydro-5H-pyrrolo[2,1-c][1,4]benzodiazepine-5-one] | 4.0 | 5.0 |
| COc1cc(/C=C/C(=O)N2CCN(C)CC2)ccc1OCCCCCOc1cc2c(cc1OC)C(=O)N1CCC[C@H]1C=N2 [11d, 7-methoxy-8-(5-2-methoxy-4-[(E)-3-(4-methylpiperazino)-3-oxo-1-propenyl-phenoxy]pentyloxy)-(11aS)-2,3,5,11^a-tetrahydro-5H-pyrrolo[2,1-c][1,4]benzodiazepine-5-one] | 7.9 | 8.8 |
| COc1cc(/C=C/C(=O)N2CCOCC2)ccc1OCCCOc1cc2c(cc1OC)C(=O)N1CCC[C@H]1C=N2 [14b, 7-methoxy-8-(3-2-methoxy-4-[(E)-3-morpholino-3-oxo-1-propenylphenoxy]propoxy)-(11aS)-2,3,5,11^a-tetrahydro-5H-pyrrolo[2,1-c][1,4]benzodiazepine-5-one] | 3.0 | 4.2 |
| COc1cc(/C=C/C(=O)N2CCOCC2)ccc1OCCCCCOc1cc2c(cc1OC)C(=O)N1CCC[C@H]1C=N2 [14d, 7-methoxy-8-(5-2-methoxy-4-[(E)-3-morpholino-3-oxo-1-propenylphenoxy]pentyloxy)-(11aS)-2,3,5,11^a-tetrahydro-5H-pyrrolo[2,1-c][1,4]benzodiazepine-5-one] | 7.1 | 8.2 |
| COc1cc2c(cc1O)N=CC1CCCN1C2=O (stereo not shown) [DC-81, reference compound] | 0.3 | 0.7 |
